For this experiment, the system named is CEM cells HIV-1 protection, formazan growth assay. As to the kind of experiment: NCI AIDS Antiviral Assay. The conditions noted are these: for IC50: measured here: growth of uninfected CEM cells. The essentials: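 Five concentrations of each compound were applied to infected and uninfected human CEM cells. Protection from HIV-1 was judged from growth measured with a soluble formazan assay.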

Structures are written as SMILES. Where “and” joins values, the source holds several entries; their conditions need not be identical. Equal entries are not always repeated. Calls of active or inactive are those of the source.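 How the source made its calls: active means compounds giving half or more protection of infected cells from virus-caused growth loss, again on retest; inactive means the rest.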 Where only a bound is given, the exact number is not on record here.

Broadly, the EC50 is the midpoint of the concentration-response curve. As usually defined, the IC50 is the point on the concentration scale where inhibition reaches its midpoint. Read a high IC50 as lower potency. Take `CN(C)c1ccc(S(=O)c2ccc(N(C)C)cc2)cc1`: the EC50 was greater than 34.7 µM and the half-inhibitory concentration (IC50) was greater than 34.7 µM.
Take `CS(=O)(=O)OCC1OC(n2ccc(NC(=O)c3ccccc3)nc2=O)CC1OS(C)(=O)=O` (stereo not given): the EC50 is greater than 200 µM and the half-maximal inhibitory concentration (IC50) was greater than 200 µM.
Turning to `CC(C)=CCc1c(-c2ccc(OC3OC(CO)C(O)C(O)C3O)cc2O)oc2c3c(cc(O)c2c1=O)OC(C)(C)C=C3` (stereo not given), the EC50 was greater than 11.5 µM and the IC50 is greater than 11.5 µM.
Turning to `CC(=O)OCC1OC(n2c(C)c(C(C)=O)c(-c3cccc4ccccc34)c(C#N)c2=S)C(OC(C)=O)C(OC(C)=O)C1OC(C)=O` (stereo not given), the EC50 is greater than 200 µM and the IC50 was 112 µM.
Consider `Cc1nc(N)sc1C(=O)/C=C/c1ccc([N+](=O)[O-])cc1`, for which the EC50 is greater than 871 µM and the IC50 came to 57.5 µM.
`Cc1ccc(/C=C2\NC(=S)NC2=O)cc1`: the EC50 was greater than 200 µM and the IC50 is greater than 200 µM.
With `Cc1cc(NS(=O)(=O)c2ccc(NC(=O)c3ccccc3SC(=O)CCCC[n+]3ccccc3)cc2)nc(C)n1`, the EC50 was 26.3 µM and the IC50 came out at 107 µM.
Consider `COc1ccc(/C=C2/Cc3cccc4c([N+](=O)[O-])ccc2c34)cc1`, for which the EC50 is greater than 100 µM and the IC50 is greater than 100 µM.
In the case of `c1ccc2c3c([nH]c2c1)CCc1cncnc1-3`, the EC50 was greater than 200 µM and the half-inhibitory concentration (IC50) is 12 µM.
The matching figures for `COc1cc(/C=C2\CCC(C)C3=C2NC(=S)NC3c2cc(OC)c(OC)c(OC)c2)cc(OC)c1OC` (stereo not given): greater than 200 µM and 32.4 µM.
On to `CCCCOC(=O)OC1CCC2(C)CC3CCC2(OO3)C1(C)C` (stereo not given), for which the EC50 is greater than 200 µM and the IC50 came to 0.977 µM.
Turning to `C[C@]12CC[C@H](OC(=O)CCC(=O)O)C[C@H]1CC[C@@H]1[C@@H]2CC[C@]2(C)C(c3ccc(=O)oc3)CC[C@]12O` (stereo not given in full), the EC50 is greater than 0.2 µM and the IC50 came out at 0.0162 µM.
On to `O=C(OC1CCCC1)C1(O)CCCCC1`, for which the EC50 was greater than 200 µM and the IC50 is greater than 200 µM.
`CN(C)CC(=O)N1CCc2c([nH]c3ccccc23)C1c1cccnc1` (stereo not given): the EC50 is greater than 107 µM and the IC50 was greater than 107 µM.
Take `CC(CC[C@@H](O)C(C)(C)O)C1[C@@H](O)CC2(C)C3CC(O)C4C(C)(C)[C@@H](OC5OC(CO)C(O)C(O)C5O)CC[C@@]45C[C@@]35CC[C@]12C` (stereo not given in full): the EC50 is greater than 200 µM and the IC50 is greater than 200 µM.
Consider `O=c1cc(NNc2ccc3ccccc3c2)[nH]c(=S)[nH]1`, for which the EC50 was greater than 200 µM and the IC50 is 38.9 µM.
With `CC(=O)OCC1OC(n2c3c(c(-c4ccco4)c(C#N)c2=S)CCC3)C(OC(C)=O)C(OC(C)=O)C1OC(C)=O` (stereo not given), the EC50 was greater than 200 µM and the IC50 is 9.77 µM.
On to `COc1cc(C)cc2c1C(=O)C(Br)(Br)CC2`, for which the EC50 was greater than 2 µM and the IC50 turned out to be 0.955 µM.
Regarding `CC(=O)NC(CCCCN(Cc1ccccc1)C(=O)N(CCCl)N=O)C(=O)NCc1ccccc1` (stereo not given), the EC50 is greater than 72.4 µM and the IC50 was greater than 72.4 µM.
On to `COCC(C#N)NC1CC(OC2CC(O)(C(=O)CO)Cc3c(O)c4c(c(O)c32)C(=O)c2c(OC)cccc2C4=O)OC(C)C1O` (stereo not given), for which the EC50 is greater than 0.2 µM and the IC50 came out at 0.00912 µM.
For `O=C1CCOc2cc(ccc2O)CCN1` the same measures were greater than 200 µM and greater than 200 µM.
In the case of `Cc1cc2c(=O)cc(-c3ccc(Cl)cc3Cl)oc2c(C(=O)O)c1C`, the result was inactive.
As for `CCOC(=O)c1nnsc1N/N=C\c1ccc([N+](=O)[O-])cc1`, the EC50 is greater than 200 µM and the IC50 was greater than 200 µM.
For the compound `CC(=O)OCC(OC(C)=O)C(OC(C)=O)C(OC(C)=O)C(C=NN(C(C)=O)S(=O)(=O)c1ccc(/C=C2\NC(=O)N(C)C2=O)cc1)OC(C)=O` (stereo not given), the EC50 is greater than 200 µM; the IC50 was 7.24 µM and 11.2 µM.
Regarding `C[P+]1(CCc2ccc(Cl)cc2)CC=CC1`, the result was inactive.
For `O=C(NO)c1ccc(OCc2cccc(Cl)c2)cc1`, the EC50 was greater than 200 µM and the IC50 is 10 µM.
In the case of `CCOC(=O)C1=NN(c2ccccc2)C(=O)/C1=C/N1C(=O)/C(=C/c2ccc([N+](=O)[O-])cc2)SC1=S`, the EC50 is greater than 200 µM and the concentration for half-maximal inhibition (IC50) worked out at 23.4 µM.
With `Cn1c(=O)c2c(nc3n(CC(O)CCl)c(=O)ccn23)n(C)c1=O` (stereo not given), the EC50 is greater than 200 µM and the half-inhibitory concentration (IC50) is 22.4 µM.
On to `Cc1cccc(/C=N/NC(=S)N2CCCC2)n1`, for which the EC50 was greater than 100 µM and the IC50 came to 0.115 µM.
On to `CCOC(=O)C1C(=O)CC(O)(OCC)C(C(=O)OCC)C1c1ccc(OC)cc1` (stereo not given), for which the EC50 is greater than 200 µM and the IC50 was greater than 200 µM.
For `C/C(CC(O)(C(F)(F)Cl)C(F)(F)Cl)=N\Nc1ccccc1`, the EC50 is greater than 200 µM and the IC50 worked out at 52.5 µM.
As to `N#CNC(N)=Nc1cc2ccccc2c2ccccc12`, the EC50 is greater than 100 µM and the IC50 was 4.27 µM.
On to `O=S1(=O)CC2(N3CCCCC3)CCCCC21` (stereo not given), for which the EC50 is greater than 891 µM and the IC50 was 219 µM.
Regarding `C=C1CN(S(=O)(=O)c2ccc(C)cc2)CCCN(Cc2ccsc2)CCCN(S(=O)(=O)c2ccc(C)cc2)C1`, the EC50 is greater than 200 µM and the IC50 turned out to be 52.5 µM.
Turning to `CC(=O)Nc1cc2nc3n(c2cc1C)CCC3OC(C)=O` (stereo not given), the EC50 is greater than 200 µM and the IC50 was greater than 200 µM.
Regarding `CCCNC(=O)N(C)C(=O)N1N=C(c2ccccc2)C1c1ccccc1` (stereo not given), the EC50 is 4.57 µM and the IC50 worked out at 52.5 µM.
Consider `O=C(OCCO)C1CC2CC1C1(C2)OCCO1` (stereo not given), for which the outcome was inactive.
For the compound `CC(C)=CC(C(O)c1ccccc1)S(=O)(=O)c1nccn1C` (stereo not given), the EC50 was greater than 407 µM and the IC50 is greater than 407 µM.
Consider `COC(=O)/C=C/c1cnc2c(c1)oc(=O)n2CCc1ccccn1`, for which the EC50 is greater than 200 µM and the IC50 is 24 µM.
On to `C=CCNC(=S)OCCCCCCCCCC`, for which the outcome was inactive.
As to `O=NNc1ccc(-c2ccccc2)cn1`, the EC50 was greater than 200 µM and the IC50 is 43.7 µM.
For the compound `O=C(c1ccc(Cl)cc1)c1cnc(Nc2ccccc2Cl)s1`, the EC50 was greater than 10.7 µM and the IC50 is greater than 10.7 µM.
Consider `O=C([O-])[C+](C=Cc1cccc2ccccc12)C(=O)O`, for which the EC50 was greater than 708 µM and the IC50 is 257 µM.
On to `COc1ccc(C2NC3=C(CCCC3)N2)cc1`, for which the EC50 was greater than 155 µM and the IC50 is 26.3 µM.
As for `CSc1nnc2nc[nH]n12`, the EC50 was greater than 200 µM and the half-maximal inhibitory concentration (IC50) was greater than 200 µM.
On to `CC(=O)Oc1c(Cl)cc(C(=CCC[C@H]2CC[C@@]3(C)[C@@H](CC[C@@H]4[C@@H]3CC[C@]3(C)[C@@H](C(C)CCCC(C)C)CC[C@@H]43)C2)c2cc(Cl)c(OC(C)=O)c(C(=O)OCc3ccccc3)c2)cc1C(=O)OCc1ccccc1` (stereo not given in full), for which the EC50 is greater than 200 µM and the half-inhibitory concentration (IC50) was greater than 200 µM.
With `CCc1ccc2c(c1)CC1(C2)Cc2cc3c(cc2C1)C(=O)CC3` (stereo not given), the EC50 was greater than 200 µM and the IC50 stood at 12.6 µM.
For the compound `O=C(c1cc2c(C(F)(F)F)onc2c2ccccc12)C(F)(F)F`, the EC50 was greater than 107 µM and the concentration for half-maximal inhibition (IC50) was 8.32 µM.
Consider `[O-][n+]1nc(N2CCOCC2)nc2ccccc21`, for which the EC50 is greater than 200 µM and the IC50 is greater than 200 µM.
With `COC(=O)/C=C1\C[C@H]2O[C@@](O)(C1)[C@H](C)C(=O)O[C@H]1C[C@@H](C=C(C)C)O[C@@H](CC3(O)O[C@H](CC[C@H]2O)[C@@H](C)[C@]2(O)CC[C@@H](C)C(=O)C32)[C@H]1C` (stereo not given in full), the outcome was inactive.
For the compound `CC(=O)Nc1[nH]c(=O)[nH]c(=O)c1N(C(C)=O)C(C)=O`, the EC50 was greater than 933 µM and the IC50 was greater than 933 µM.
In the case of `CC1CC(=O)Nc2ccccc2N1C(=O)CN1CCC(CCCCN(C)C)CC1` (stereo not given), the EC50 was greater than 251 µM and the IC50 is greater than 251 µM.
Turning to `N#C/C(=C\NC(=S)Nc1ccc(S(=O)(=O)Nc2ccccn2)cc1)C(N)=O`, the EC50 is greater than 200 µM and the IC50 is greater than 200 µM.
Turning to `COc1ccc2c(c1)OC[C@@H]1c3cc(NC(=O)c4ccccc4)c(OC)cc3N(S(=O)(=O)c3ccccc3)[C@H]21`, the EC50 is greater than 200 µM and the IC50 was greater than 200 µM.
Take `O=C(O)Cn1c(=O)[nH]c(=O)c2c1ncn2Cc1ccccc1`: the EC50 was greater than 832 µM and the IC50 was greater than 832 µM.
`COC1(C)C=NCC(C)(C)NC(=O)C(C)(OC)C=NCC(C)(C)NC1=O` (stereo not given): the EC50 was greater than 14.1 µM and the IC50 is greater than 14.1 µM.
For the compound `S=C(NCCNC(=S)SSC(=S)NNc1ccccc1)SSC(=S)NNc1ccccc1`, the EC50 is greater than 200 µM and the IC50 was 17.4 µM.
`COc1cc2c[n+](C)c3c(c2cc1OC)Cc1cc(OS(C)(=O)=O)c(OC)cc1-3`: the EC50 was greater than 57.5 µM and the IC50 is 10.5 µM.
Consider `Cn1c(C(O)(Cc2ccccn2)Cc2ccccn2)cc2ccccc21`, for which the EC50 is greater than 97.7 µM and the IC50 is 72.4 µM.
The matching figures for `COc1ccc(-n2nc(C)cc(Cl)c2=O)cc1`: greater than 145 µM and greater than 145 µM.
Regarding `CCC(C#N)NC(=O)NC(C#N)CC` (stereo not given), the EC50 was greater than 200 µM and the IC50 worked out at 107 µM.
On to `O=C(CC(=O)Nc1ccc(C(=O)O)cc1)Nc1ccc(C(=O)O)cc1`, for which the EC50 was greater than 200 µM and the IC50 was greater than 200 µM.
On to `Cc1ccc(S(=O)(=O)OCC2CC[C@]3(C)C4CCC5(C)C(CCC5[C@H](C)CCC(=O)O)[C@@H]4CC[C@@H]3C2)cc1` (stereo not given in full), for which the EC50 is greater than 4.9 µM and the IC50 was greater than 4.9 µM.
Regarding `O=C(Sc1c(-c2ccccc2)c(=O)n(-c2ccccc2)c(=S)n1-c1ccccc1)c1ccccc1`, the EC50 was greater than 200 µM and the IC50 came to 8.51 µM.
On to `COS(=O)c1cc(Cl)cc(Cl)c1O` (stereo not given), for which the result was inactive.
As for `COC1N(C2C=CC(CO)O2)C(=O)NC(=O)C1(C)Cl` (stereo not given), the EC50 is 468 µM and the IC50 worked out at 1020 µM.
For `CC(SC(C)C(=O)N/N=C/c1ccc(B(O)O)cc1)C(=O)N/N=C\c1ccc(B(O)O)cc1` (stereo not given) the same measures were greater than 200 µM and greater than 200 µM.
For `Cc1ccc(NC(=O)CSc2nnc(Cc3ccccc3)o2)cc1`, the EC50 was greater than 55 µM and the IC50 was greater than 55 µM.

For the origin of these results see PubChem BioAssay AID179 (DTP/NCI, 2004).
